Source: patent EP0519427A2, “N-substituted-3-iodopropiolamide, production and use thereof” (priority 1991, dated 1992)

Assays:
Format in all cases: cell-based
[1] = system: Candida albicans IFO-0583; test: Antibacterial and antifungal activity, paper disc method; details: IFO0583, paper disc d=8 mm dipped in 1,000 µg/ml solution, YNB agar medium, read-out: diameter of the growth inhibition circle, Can.(IFO-0583)
Experimental: (§1) Antibacterial and antifungal activity tests for various bacteria and fungi were conducted. The tests were carried out by the conventional paper disc method. That is, a paper disc (d=8 mm) was dipped in aqueous or methanol solution of the compound of the present invention (concentration : 1,000 µg/ml), then dried and used.
(§2) As bacteria to be tested, • ① Staphylococcus aureus IFO-12732 [hereinafter abbreviated to Sta.] • ② Bacillus subtilis IFO-13719 [Bac.] • ③ Escherichia coli IFO-3301 [Esc.] were used. As yeast to be tested, • ④ Saccharomyces cerevisiae IFO-0210 [Sac.] • ⑤ Candida albicans IFO-0583 [Can.] were used. As fungi to be tested, • ⑥ Aspergillus niger IFO-4407 [Asp.] • ⑦ Penicillium citrinum IFO-7784 [Pen.] • ⑧ Tyromyces palustris IFO-30339 [Tyr.] • ⑨ Coriolus versicolor IFO-30340 [Cor.] were used. Among the above fungi, Tyr. and Cor. are wood rot fungi.
(§3) As the test media, agar media shown below were used. That is, TSA (Trypticase Soy Agar) medium was used for Sta., Bac. and Esc.; YNB (Yeast Nitrogen Base) agar medium was used for Sac. and Can.; SDA (Sabouraud Dextrose Agar) medium was used for Asp. and Pen.; and PDA (Potato Dextrose Agar) medium was used for Try. and Cor.
(§4) The determination of antibacterial and antifungal effectiveness was carried out by measuring the diameter of the growth inhibition circle generated on the circumference of the paper disc. The indication of effectiveness is given as follows: -: no growth inhibition circle was observed. +: diameter of the growth inhibition circle was 9 - 20 mm ++: diameter of the growth inhibition circle was 21 - 40 mm +++: diameter of the growth inhibition circle was 41 mm or more

[2] = system: Staphylococcus aureus IFO-12732; test: as above; details: IFO12732, paper disc d=8 mm dipped in 1,000 µg/ml solution, TSA medium, read-out: diameter of the growth inhibition circle, Sta.(IFO-12732)
Experimental: as §1, §2, §3, §4

[3] = system: Coriolus versicolor IFO-30340; test: as above; details: Trametes versicolor, IFO30340; paper disc d=8 mm dipped in 1,000 µg/ml solution; PDA medium; read-out: diameter of the growth inhibition circle, Cor.(IFO-30340)
Experimental: as §1, §2, §3, §4

[4] = system: Aspergillus Niger (IFO 6341), Penicillium funiculosum (IFO 6345), Rhizopus javanicus (IFO 6354), Aureobasidium pullulans (IFO 6353), Gliocladium virens (IFO …); test: Fungicide activity for wood fungicide, sum of average ratings and damage value over the five fungi; details: for damage value: D = S₁ / S₀ × 100, untreated 100.0, lower = higher fungicide activity; for Sum (of average rating values A₁ to A₅): S = A₁ + A₂ + A₃ + A₄ + A₅, untreated 15.0; for wood fungicide activity (statement in words): summary of Table 3
Experimental: This test was conducted according to Specification No.2 of Japan Wood Preserving Association, enacted in 1979 and titled "Test methods of fungicide activity for wood fungicide".
• ① Aspergillus niger van Tieghem IFO 6341 = ATCC 6275 • ② Penicillium funiculosum Thom (formerly : Penicillium luteum Zukal) IFO 6345 = ATCC 9644 • ③ Rhizopus javanicus Takeda (formerly : Rhizopus nigricans Ehrenberg S.N. 32) IFO 6354 • ④ Aureobasidium pullulans (de Bary) Arnaud IFO 6353 = IAM (H. Iizuka, F-24) • ⑤ Gliocladium virens Miller, Gidden & Fosteb IFO 6355 = ATCC 9645 (formerly : Trichoderma viride, T.I.)
The fungi ① , ② , ③ and ⑤ are classified as fungi imperfecti, and the fungus ④ as blue stain fungus.
The Culture medium comprised the potato-sap agar culture medium (specified in the Japan Industrial Standard (JIS) Z 2911- 1960) of 50 ml, put in the conical flask of 100 ml, sterilized by steam at 1.4-1.6 kgf/cm² .G (137.2-156.8 KPa) for 30 minutes.
The fungi to be used were inoculated into the culture medium specified in the previous section and were cultured at 26 ± 2 °C under the relative humidity of 70-80 % for two weeks.
The potato sap of 50 ml, sterilized, cooled to room temperature and to which dioctyl sodium sulfosuccinate, a wetting agent, was added so as to become 0.005 %, was dropped to the fully breeding fungi layer, and was agitated with a platinum spatula in such a way that the spore was torn off. The resulting liquid filtered by sterilized gauze was the spore suspension.
3-5-1 A Petri dish measured 90-100 mm in diameter and 20 mm in height.
3-5-2 Agar liquid (which has no nutrients) of 2 % sterilized by steam was dropped onto the Petri dish sterilized by dry heat, and then was solidified.
3-5-3 Three mm diameter sterilized glass bars or plastic nets made of polypropylene, etc. were placed to prevent the test specimens from touching with agar directly.
3-6-1 The type of trees for wood specimens was beech. The cross section was of grain face, and the dimension was 20 mm wide 3 mm thick and 50 mm long.
3-6-2 Wood specimens were supplied with nutrients in such a way that they were dipped into the potato-sap (the one in the section 3-2, but agar was not added) for 3 minutes.
3-6-3 Nutrient-supplied wood specimens, after drying at 60 °C, were used for testing immediately. They were temporarily stored at 0 °C, but they were served to tests as soon as possible.
The test specimens were of two types, treated and untreated speciments. The treated specimens referred to the one treated with fungicide. The untreated specimens were of two types, the one really untreated and the other treated with solvent only.
3-7-2-1 Nutrients-supplied wood specimens were dried at 60 ± 2 °C, and then their weights (W₀) were measured. Test specimens of 10-20 pieces were piled up in a one liter beaker in such a way that two specimens constant space apart from each other were alternately put on the other two specimens also constant space apart from each other. On the top of the two specimens, a weight was placed. Through the test specimens thus arranged, the fungicide solution was introduced. The level of the fungicide solution was one centimeter above the top specimens. The test specimens were dipped for three minutes after the fungicide solution introduction.
After finishing dipping, the test specimens were wiped softly, and then the weights (W₁) were measured immediately. As control experiment, the same procedure as the above was done using solvent without fungicide.
3-7-2-2 The amounts of solution pick-up and fungicide pick-up were calculated with the following equations: The amount of solution absorption: RL = W₁ - W₀ [formula] The amount of fungicide absorption: Rc = RL × fungicide concentration [formula] 3-7-2-3 Wood specimens treated were placed without contacting each other, then were air-dried for two days, and then served as the treated test specimens. […]

Compound	zone of inhibition at 1000 µg/mL [1]	zone of inhibition at 1000 µg/mL [2]	zone of inhibition at 1000 µg/mL [3]	damage value [4]	Sum (of average rating values A₁ to A₅) [4]	wood fungicide activity (statement in words) [4]
CC(C)(C)NC(=O)C#CI [Example 1, N-(tert-Butyl)-3-iodopropiolamide]	21 to 40 mm	9 to 20 mm	> 41 mm	13.3	2.0	excellent wood fungicide activity
CCCCCCCCCCNC(=O)C#CI [Example 2, N-(n-Decyl)-3-iodopropiolamide]	9 to 20 mm	9 to 20 mm	21 to 40 mm	62.2	9.3	
CCCCNC(=O)C#CI [Example 4, N-(n-Butyl)-3-iodopropiolamide]	21 to 40 mm	21 to 40 mm	> 41 mm	6.7	1.0	excellent wood fungicide activity
CCC(C)NC(=O)C#CI (stereo not shown) [Example 5, N-(sec-Butyl)-3-iodopropiolamide]	21 to 40 mm	21 to 40 mm	> 41 mm	28.9	4.3	excellent wood fungicide activity
CC(C)CNC(=O)C#CI [Example 6, N-Isobutyl-3-iodopropiolamide]	21 to 40 mm	21 to 40 mm	21 to 40 mm	20.2	3.0	excellent wood fungicide activity
CCCCCNC(=O)C#CI [Example 7, N-(n-Pentyl)-3-iodopropiolamide]	21 to 40 mm	21 to 40 mm	> 41 mm	34.4	5.2	
CCCCCCNC(=O)C#CI [Example 8, N-(n-Hexyl)-3-iodopropiolamide]	21 to 40 mm	21 to 40 mm	> 41 mm	23.3	3.5	excellent wood fungicide activity
CCCCCCCNC(=O)C#CI [Example 9, N-(n-Heptyl)-3-iodopropiolamide]	21 to 40 mm	9 to 20 mm	> 41 mm	50.0	7.5	
CCCCCCCCNC(=O)C#CI [Example 10, N-(n-Octyl)-3-iodopropiolamide]	21 to 40 mm	9 to 20 mm	> 41 mm	54.4	8.2	
CCCCCCCCCNC(=O)C#CI [Example 11, N-(n-Nonyl)-3-iodopropiolamide]	9 to 20 mm	9 to 20 mm	> 41 mm	82.2	12.3	
